Reference: US9351974B2, “Substituted pteridinones for the treatment of cancer” (OSI Pharmaceuticals, LLC, priority 2011, dated 2016)

molecular target: T1, His-tagged full-length RSK2 (RPS6KA3) (Homo sapiens, UniProt P51812); experiment: RSK2 Omnia Assay for compound IC50 determination; format: biochemical; settings: ATP 15 μM, n=2, read-out: Mean RSK2 Biochem IC50
T1 construct: His-tagged full-length RSK2 (RPS6KA3, Invitrogen PV3323); His; purchased Invitrogen PV3323
How it was run: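 Initial-rate slopes from continuous kinetic reads were fitted to a four-parameter equation for IC50 (n=2). Ki was then derived by Cheng-Prusoff assuming ATP-competitive inhibition. Reactions contained 15 μM ATP (Km 16.3 μM), 5 μM Omnia ST Peptide 6, and […] in 50 mM HEPES pH 7.5, 10 mM MgCl2, 1 mM DTT, 1% DMSO. Compounds spanned 11 threefold steps, […] final.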

T1 sequence (P51812 whole entry): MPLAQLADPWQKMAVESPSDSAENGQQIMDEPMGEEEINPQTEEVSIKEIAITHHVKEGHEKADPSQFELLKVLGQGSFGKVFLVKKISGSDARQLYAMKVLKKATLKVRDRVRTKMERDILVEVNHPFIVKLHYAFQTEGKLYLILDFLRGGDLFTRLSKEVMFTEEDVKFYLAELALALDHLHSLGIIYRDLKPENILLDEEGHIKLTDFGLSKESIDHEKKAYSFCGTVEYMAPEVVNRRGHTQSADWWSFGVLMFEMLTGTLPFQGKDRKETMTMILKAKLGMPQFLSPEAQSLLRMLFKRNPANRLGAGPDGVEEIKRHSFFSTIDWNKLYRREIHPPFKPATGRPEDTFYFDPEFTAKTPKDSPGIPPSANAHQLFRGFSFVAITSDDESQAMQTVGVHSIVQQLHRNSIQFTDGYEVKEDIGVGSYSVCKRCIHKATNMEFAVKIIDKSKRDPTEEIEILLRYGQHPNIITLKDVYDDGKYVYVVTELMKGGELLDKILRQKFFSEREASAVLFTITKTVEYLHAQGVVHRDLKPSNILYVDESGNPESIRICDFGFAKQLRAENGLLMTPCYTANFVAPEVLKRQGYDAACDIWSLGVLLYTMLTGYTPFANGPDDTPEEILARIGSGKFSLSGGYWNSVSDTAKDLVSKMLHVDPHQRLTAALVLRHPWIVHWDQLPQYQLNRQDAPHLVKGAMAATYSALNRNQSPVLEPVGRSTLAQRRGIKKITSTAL

Row | SMILES | IC50 [nM]
1 | C[C@@H]1C(=O)N(c2cccc(C#N)c2)c2cnc(Nc3ccc4[nH]c(=O)[nH]c4c3)nc2N1C1CCC(F)(F)CC1 [compound 265, 3-[(7R)-8-(4,4-difluorocyclohexyl)-7-methyl-6-oxo-2-[(2-oxo-2,3-dihydro-1H-benzimidazol-5-yl)amino]-7,8-dihydropteridin-5(6H)-yl]benzonitrile] | > 1000
2 | Cc1ccc(N2C(=O)[C@@H](C)N(C3CCCCC3)c3nc(Nc4ccc5[nH]ncc5c4)ncc32)cc1F [compound 121, (7R)-8-cyclohexyl-5-(3-fluoro-4-methylphenyl)-2-(1H-indazol-5-ylamino)-7-methyl-7,8-dihydropteridin-6(5H)-one] | ≤ 100
3 | C[C@@H]1C(=O)N(c2ccn(C)c(=O)c2)c2cnc(Nc3cnc4[nH]ncc4c3)nc2N1C1CCCCC1 [compound 175, (7R)-8-cyclohexyl-7-methyl-5-(1-methyl-2-oxo-1,2-dihydropyridin-4-yl)-2-(1H-pyrazolo[3,4-b]pyridin-5-ylamino)-7,8-dihydropteridin-6(5H)-one] | ≤ 100
4 | CC1C(=O)N(c2ccccc2)c2cnc(Nc3ccc4[nH]ncc4c3)nc2N1C1CCCCC1 (centres unmarked) [Example 61, 8-cyclohexyl-2-(1H-indazol-5-ylamino)-7-methyl-5-phenyl-7,8-dihydropteridin-6(5H)-one] | ≤ 100
5 | C[C@@H]1C(=O)N(c2cccc(C#N)c2)c2cnc(Nc3ccc4[nH]ncc4c3)nc2N1C1CCC(C)(C)CC1 [Example 207, 3-[(7R)-8-(4,4-dimethylcyclohexyl)-2-(1H-indazol-5-ylamino)-7-methyl-6-oxo-7,8-dihydropteridin-5(6H)-yl]benzonitrile] | ≤ 100
6 | C[C@@H]1C(=O)N(c2ccc(N3CCC(O)CC3)nc2)c2cnc(Nc3cc(F)c4[nH]ncc4c3)nc2N1C1CCCCC1 [compound 147, (7R)-8-cyclohexyl-2-[(7-fluoro-1H-indazol-5-yl)amino]-5-[6-(4-hydroxypiperidin-1-yl)pyridin-3-yl]-7-methyl-7,8-dihydropteridin-6(5H)-one] | ≤ 100
7 | CC(C)CN1c2nc(Nc3ccc4[nH]ncc4c3)ncc2N(c2ccccc2)C(=O)[C@H]1C [Example 79, (7R)-2-(1H-indazol-5-ylamino)-7-methyl-8-(2-methylpropyl)-5-phenyl-7,8-dihydropteridin-6(5H)-one] | ≤ 100
8 | CC[C@@H]1C(=O)N(c2cccc(C#N)c2)c2cnc(Nc3ccc4[nH]ncc4c3)nc2N1C1CCCC1 [compound 140, 3-[(7R)-8-cyclopentyl-7-ethyl-2-(1H-indazol-5-ylamino)-6-oxo-7,8-dihydropteridin-5(6H)-yl]benzonitrile] | ≤ 100
9 | CC1C(=O)N(c2ccccc2)c2cnc(Nc3ccc4[nH]ncc4c3)nc2N1c1ccccc1 (centres unmarked) [Example 178, 2-(1H-indazol-5-ylamino)-7-methyl-5,8-diphenyl-7,8-dihydropteridin-6(5H)-one] | ≤ 100
10 | CC1C(=O)N(c2ccccc2)c2cnc(Nc3ccc4[nH]ncc4c3)nc2N1C1CCCC1 (centres unmarked) [Example 64, 8-cyclopentyl-2-(1H-indazol-5-ylamino)-7-methyl-5-phenyl-7,8-dihydropteridin-6(5H)-one] | ≤ 100
11 | CO[C@H]1CC[C@H](N2c3nc(Nc4cc(F)c5[nH]ncc5c4)ncc3N(c3cccc(C#N)c3)C(=O)[C@H]2C)CC1 [compound 224, 3-[(7R)-2-[(7-fluoro-1H-indazol-5-yl)amino]-8-(trans-4-methoxycyclohexyl)-7-methyl-6-oxo-7,8-dihydropteridin-5(6H)-yl]benzonitrile] | ≤ 100
12 | CC1C(=O)N(c2ccccc2)c2cnc(Nc3ccc4c(c3)CC(=O)N4)nc2N1C1CCCCC1 (centres unmarked) [Example 60, 8-cyclohexyl-7-methyl-2-[(2-oxo-2,3-dihydro-1H-indol-5-yl)amino]-5-phenyl-7,8-dihydropteridin-6(5H)-one] | ≤ 100
13 | COc1ccc(N2C(=O)[C@@H](C)N(C3CCCCC3)c3nc(Nc4cc(F)c5[nH]ncc5c4)ncc32)cc1C#N [compound 136, 5-[(7R)-8-cyclohexyl-2-[(7-fluoro-1H-indazol-5-yl)amino]-7-methyl-6-oxo-7,8-dihydropteridin-5(6H)-yl]-2-methoxybenzonitrile] | ≤ 100
14 | C[C@@H]1C(=O)N(c2cccnc2)c2cnc(Nc3cc(F)c4[nH]ncc4c3)nc2N1C1CCC(C)(C)CC1 [Example 208, (7R)-8-(4,4-dimethylcyclohexyl)-2-[(7-fluoro-1H-indazol-5-yl)amino]-7-methyl-5-(pyridin-3-yl)-7,8-dihydropteridin-6(5H)-one] | ≤ 100
15 | C[C@@H]1C(=O)N(c2cc(F)cc(C#N)c2)c2cnc(Nc3ccc4[nH]ncc4c3)nc2N1C1CCCCC1 [compound 112, 3-[(7R)-8-cyclohexyl-2-(1H-indazol-5-ylamino)-7-methyl-6-oxo-7,8-dihydropteridin-5(6H)-yl]-5-fluorobenzonitrile] | ≤ 100
16 | CC(C)CCn1c(=O)c(=O)n(-c2ccccc2)c2cnc(Nc3ccc4[nH]ncc4c3)nc21 [Example 305, 2-(1H-indazol-5-ylamino)-8-(3-methylbutyl)-5-phenyl-5,8-dihydropteridine-6,7-dione] | > 1000
17 | C[C@@H]1C(=O)N(c2cnc3ccccc3c2)c2cnc(Nc3ccc4[nH]ncc4c3)nc2N1C1CCCCC1 [Example 50, (7R)-8-cyclohexyl-2-(1H-indazol-5-ylamino)-7-methyl-5-(quinolin-3-yl)-7,8-dihydropteridin-6(5H)-one] | ≤ 100
18 | CCOc1ccc(N2C(=O)[C@@H](C)N([C@H]3CC[C@H](C)CC3)c3nc(Nc4cnc5[nH]ncc5c4)ncc32)cc1C#N [compound 246, 2-Ethoxy-5-[(7R)-7-methyl-8-(trans-4-methylcyclohexyl)-6-oxo-2-(1H-pyrazolo[3,4-b]pyridin-5-ylamino)-7,8-dihydropteridin-5(6H)-yl]benzonitrile] | ≤ 100
19 | Cc1cccc(N2C(=O)[C@@H](C)N(C3CCCCC3)c3nc(Nc4ccc5[nH]ncc5c4)ncc32)c1 [Example 30, (7R)-8-cyclohexyl-2-(1H-indazol-5-ylamino)-7-methyl-5-(3-methylphenyl)-7,8-dihydropteridin-6(5H)-one] | ≤ 100
20 | C[C@@H]1C(=O)N(c2cccc(C#N)c2)c2cnc(Nc3cc(F)c(O)c(F)c3)nc2N1[C@H]1CC[C@H](C(F)(F)F)CC1 [compound 259, 3-[(7R)-2-[(3,5-difluoro-4-hydroxyphenyl)amino]-7-methyl-6-oxo-8-[trans-4-(trifluoromethyl)cyclohexyl]-7,8-dihydropteridin-5(6H)-yl]benzonitrile] | ≤ 100

The next lines start with the values.

Row | IC50 [nM] | SMILES
21 | ≤ 100 | COc1ccc(N2C(=O)[C@@H](C)N([C@H]3CC[C@H](C)CC3)c3nc(Nc4cnc5[nH]ncc5c4)ncc32)cc1C#N [compound 245, 2-Methoxy-5-[(7R)-7-methyl-8-(trans-4-methylcyclohexyl)-6-oxo-2-(1H-pyrazolo[3,4-b]pyridin-5-ylamino)-7,8-dihydropteridin-5(6H)-yl]benzonitrile]
22 | ≤ 100 | COc1cc(F)cc(N2C(=O)[C@@H](C)N(C3CCCCC3)c3nc(Nc4ccc5[nH]ncc5c4)ncc32)c1 [compound 99, (7R)-8-cyclohexyl-5-(3-fluoro-5-methoxyphenyl)-2-(1H-indazol-5-ylamino)-7-methyl-7,8-dihydropteridin-6(5H)-one]
23 | ≤ 100 | C[C@@H]1C(=O)N(c2cccc(F)c2)c2cnc(Nc3cc(F)c4[nH]ncc4c3)nc2N1C1CCC(F)(F)CC1 [compound 263, (7R)-8-(4,4-difluorocyclohexyl)-2-[(7-fluoro-1H-indazol-5-yl)amino]-5-(3-fluorophenyl)-7-methyl-7,8-dihydropteridin-6(5H)-one]
24 | ≤ 100 | C[C@@H]1C(=O)N(c2cncc(C#N)c2)c2cnc(Nc3ccc4[nH]ncc4c3)nc2N1C1CCCCC1 [compound 128, 5-[(7R)-8-cyclohexyl-2-(1H-indazol-5-ylamino)-7-methyl-6-oxo-7,8-dihydropteridin-5(6H)-yl]pyridine-3-carbonitrile]
25 | ≤ 100 | COc1ccc(N2C(=O)[C@@H](C)N(C3CCCCC3)c3nc(Nc4ccc5[nH]c(=O)oc5c4)ncc32)cc1C#N [compound 165, 5-[(7R)-8-cyclohexyl-7-methyl-6-oxo-2-[(2-oxo-2,3-dihydro-1,3-benzoxazol-6-yl)amino]-7,8-dihydropteridin-5(6H)-yl]-2-methoxybenzonitrile]
26 | ≤ 100 | C[C@@H]1C(=O)N(c2cccc([S+](C)[O-])c2)c2cnc(Nc3ccc4[nH]ncc4c3)nc2N1C1CCCCC1 (stereo partly drawn) [compound 114, (7R)-8-cyclohexyl-2-(1H-indazol-5-ylamino)-7-methyl-5-[3-(methylsulfinyl)phenyl]-7,8-dihydropteridin-6(5H)-one]
27 | ≤ 100 | [2H]C1([2H])C(N2c3nc(Nc4cc(F)c5[nH]ncc5c4)ncc3N(c3cccnc3)C(=O)[C@H]2C)C([2H])([2H])C([2H])([2H])C([2H])([2H])C1([2H])[2H] [compound 301, (7R)-8-[(2,2,3,3,4,4,5,5,6,6-2H10)cyclohexyl]-2-[(7-fluoro-1H-indazol-5-yl)amino]-7-methyl-5-(pyridin-3-yl)-7,8-dihydropteridin-6(5H)-one]
28 | ≤ 100 | C[C@@H]1C(=O)N(c2cccc(C#N)c2)c2cnc(Nc3cc(F)c4[nH]nc(F)c4c3F)nc2N1C1CCCCC1 [compound 146, 3-[(7R)-8-cyclohexyl-7-methyl-6-oxo-2-[(3,4,7-trifluoro-1H-indazol-5-yl)amino]-7,8-dihydropteridin-5(6H)-yl]benzonitrile]
29 | ≤ 100 | C[C@@H]1C(=O)N(c2cccc(OC(F)(F)F)c2)c2cnc(Nc3ccc4[nH]ncc4c3)nc2N1C1CCCCC1 [Example 34, (7R)-8-cyclohexyl-2-(1H-indazol-5-ylamino)-7-methyl-5-[3-(trifluoromethoxy)phenyl]-7,8-dihydropteridin-6(5H)-one]
